# Patent US9221838B2, “Inhibitors of AKT activity” (ALMAC DISCOVERY LIMITED, priority 2009, dated 2015)
# Key:
# Assay type in all cases: biochemical
# AKT1 = biological target: T1, AKT1 (Homo sapiens, UniProt P31749); assay: AKT Kinase Assay (IMAP fluorescent polarisation) vs AKT1
# T1 construct: purchased SignalChem
# In short: (§1)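 Phosphorylation of FAM-Crosstide detected by IMAP binding and fluorescence polarisation (485/528 nm), with IC50 fitted from % inhibition versus vehicle. Compound was incubated 45 min with enzyme, then reacted 1 h at room temperature with ATP and peptide in Tris/MgCl2/DTT buffer. Dose response had fourteen half-log points.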
# AKT3 = biological target: T2, AKT3 (Homo sapiens, UniProt Q9Y243); assay: AKT Kinase Assay (IMAP fluorescent polarisation) vs AKT3
# T2 construct: purchased SignalChem
# In short: as §1
# AKT2 = biological target: T3, AKT2 (Homo sapiens, UniProt P31751); assay: AKT Kinase Assay (IMAP fluorescent polarisation) vs AKT2
# T3 construct: purchased SignalChem
# In short: as §1
# T3 sequence (P31751 whole entry): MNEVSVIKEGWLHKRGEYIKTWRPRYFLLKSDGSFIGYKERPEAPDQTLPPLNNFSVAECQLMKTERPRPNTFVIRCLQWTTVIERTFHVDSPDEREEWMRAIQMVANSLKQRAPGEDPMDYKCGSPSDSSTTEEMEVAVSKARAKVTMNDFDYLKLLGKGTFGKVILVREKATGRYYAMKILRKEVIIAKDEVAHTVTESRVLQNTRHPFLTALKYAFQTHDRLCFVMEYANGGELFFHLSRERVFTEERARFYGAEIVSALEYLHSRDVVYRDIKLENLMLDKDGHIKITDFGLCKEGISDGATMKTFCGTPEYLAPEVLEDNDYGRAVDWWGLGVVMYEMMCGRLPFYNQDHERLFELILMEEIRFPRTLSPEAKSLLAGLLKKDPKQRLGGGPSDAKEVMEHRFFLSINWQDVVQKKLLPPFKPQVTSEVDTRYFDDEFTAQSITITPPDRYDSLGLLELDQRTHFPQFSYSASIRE
# T1 sequence (P31749 whole entry): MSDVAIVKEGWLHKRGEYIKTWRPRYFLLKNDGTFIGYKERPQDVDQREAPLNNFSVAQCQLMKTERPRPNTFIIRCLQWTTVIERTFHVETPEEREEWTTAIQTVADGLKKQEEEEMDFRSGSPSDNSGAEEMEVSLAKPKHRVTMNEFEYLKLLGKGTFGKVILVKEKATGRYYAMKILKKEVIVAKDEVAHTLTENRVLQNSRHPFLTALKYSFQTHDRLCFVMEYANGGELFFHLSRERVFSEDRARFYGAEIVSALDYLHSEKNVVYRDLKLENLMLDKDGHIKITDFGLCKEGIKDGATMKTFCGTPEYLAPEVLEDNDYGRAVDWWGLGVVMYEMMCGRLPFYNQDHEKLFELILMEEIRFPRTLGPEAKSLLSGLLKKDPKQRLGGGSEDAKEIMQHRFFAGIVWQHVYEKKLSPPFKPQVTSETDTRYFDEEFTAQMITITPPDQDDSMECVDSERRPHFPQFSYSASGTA
# T2 sequence (Q9Y243 whole entry): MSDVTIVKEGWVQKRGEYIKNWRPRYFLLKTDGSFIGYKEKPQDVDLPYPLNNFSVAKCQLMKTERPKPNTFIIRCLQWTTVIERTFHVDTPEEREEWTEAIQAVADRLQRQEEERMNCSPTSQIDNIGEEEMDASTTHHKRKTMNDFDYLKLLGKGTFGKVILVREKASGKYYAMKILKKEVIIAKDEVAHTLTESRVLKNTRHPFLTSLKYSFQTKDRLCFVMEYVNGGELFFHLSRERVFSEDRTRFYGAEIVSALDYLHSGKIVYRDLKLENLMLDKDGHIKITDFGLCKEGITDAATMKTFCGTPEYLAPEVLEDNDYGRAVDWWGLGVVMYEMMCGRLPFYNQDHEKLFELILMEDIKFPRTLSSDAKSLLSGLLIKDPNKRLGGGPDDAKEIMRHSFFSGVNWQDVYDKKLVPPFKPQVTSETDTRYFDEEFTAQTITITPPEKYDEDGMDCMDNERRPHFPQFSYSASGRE
SMILES,IC50 (AKT1),IC50 (AKT3),IC50 (AKT2)
"CN1Cc2nc(-c3ccc(C4(N)CCC4)cc3)c(-c3ccccc3)cc2N(C)C1=O [Example 89, 6-(4-(1-aminocyclobutyl)phenyl)-1,3-dimethyl-7-phenyl-3,4-dihydropyrido[3,2-d]pyrimidin-2(1H)-one]",100 to 1000 nM,1000 to 10000 nM,100 to 1000 nM
"NC1(c2ccc(-c3nc4c(cc3-c3ccccc3)-n3c(nnc3C(F)(F)F)CO4)cc2)CCC1 [Example 100, 1-(4-(8-phenyl-1-(trifluoromethyl)-4H-pyrido[2,3-b][1,2,4]triazolo[4,3-d][1,4]oxazin-7-yl)phenyl)cyclobutanamine]",100 to 1000 nM,1000 to 10000 nM,1000 to 10000 nM
"CN1C(=O)COc2nc(-c3ccc(C4(N)CCC4)cc3)c(-c3cccs3)cc21 [Example 126, 6-(4-(1-aminocyclobutyl)phenyl)-1-methyl-7-(thiophen-2-yl)-1H-pyrido[2,3-b][1,4]oxazin-2(3H)-one]",100 to 1000 nM,1000 to 10000 nM,100 to 1000 nM
"CC(CO)(CO)CN1C(=O)COc2nc(-c3ccc(C4(N)CCC4)cc3)c(-c3ccccc3)cc21 [Example 106, 6-(4-(1-aminocyclobutyl)phenyl)-1-(3-hydroxy-2-(hydroxymethyl)-2-methylpropyl)-7-phenyl-1H-pyrido[2,3-b][1,4]oxazin-2(3H)-one]",100 to 1000 nM,1000 to 10000 nM,100 to 1000 nM
"NC1(c2ccc(-c3nc4c(cc3-c3ccccc3)-n3c(nnc3-c3ccccn3)CO4)cc2)CCC1 [Example 130, 1-(4-(8-phenyl-1-(pyridin-2-yl)-4H-pyrido[2,3-b][1,2,4]triazolo[4,3-d][1,4]oxazin-7-yl)phenyl)cyclobutanamine]",100 to 1000 nM,> 10000 nM,> 10000 nM
"NC1(c2ccc(-c3nc4c(cc3-c3ccccc3)N(C3CCCC3)C(=O)CO4)cc2)CCC1 [Example 58, 6-(4-(1-aminocyclobutyl)phenyl)-1-cyclopentyl-7-phenyl-1H-pyrido[2,3-b][1,4]oxazin-2(3H)-one]",1000 to 10000 nM,1000 to 10000 nM,100 to 1000 nM
"NC1(c2ccc(-c3nc4c(cc3-c3ccccc3)-c3n[nH]c(NCCO)c3CC4)cc2)CCC1 [Example 12, 2-((7-(4-(1-aminocyclobutyl)phenyl)-8-phenyl-4,5-dihydro-2H-pyrazolo[3,4-f]quinolin-3-yl)amino)ethanol]",≤ 100 nM,> 10000 nM,1000 to 10000 nM
"CCCc1nnc2n1-c1cc(-c3ccccc3)c(-c3ccc(C4(N)CCC4)cc3)nc1OC2 [Example 69, 1-(4-(8-phenyl-1-propyl-4H-pyrido[2,3-b][1,2,4]triazolo[4,3-d][1,4]oxazin-7-yl)phenyl)cyclobutanamine]",≤ 100 nM,1000 to 10000 nM,100 to 1000 nM
"C[C@H]1Oc2nc(-c3ccc(C4(N)CCC4)cc3)c(-c3ccccc3)cc2N(C)C1=O [Example 94, (R)-6-(4-(1-aminocyclobutyl)phenyl)-1,3-dimethyl-7phenyl-1H-pyrido[2,3-b][1,4]oxazin-2(3H)-one]",100 to 1000 nM,> 10000 nM,1000 to 10000 nM
"NC1(c2ccc(-c3nc4c(cc3-c3ccccc3)N(CC3CC3)C(=O)CO4)cc2)CCC1 [Example 55, 6-(4-(1-aminocyclobutyl)phenyl)-1-(cyclopropylmethyl)-7-phenyl-1H-pyrido[2,3-b][1,4]oxazin-2(3H)-one]",100 to 1000 nM,100 to 1000 nM,≤ 100 nM
CN(C)CCN1CCc2nc(-c3ccc(C4(N)CCC4)cc3)c(-c3ccccc3)cc2C1=O [Example 25],100 to 1000 nM,> 10000 nM,1000 to 10000 nM
"Cn1nc2n(c1=O)-c1cc(-c3ccccc3)c(-c3ccc(C4(N)CCC4)cc3)nc1OC2 [Example 99, 7-(4-(1-aminocyclobutyl)phenyl)-2-methyl-8-phenyl-2,4-dihydro-1H-pyrido[2,3-b][1,2,4]triazolo[4,3-d][1,4]oxazin-1-one]",100 to 1000 nM,1000 to 10000 nM,100 to 1000 nM
"CC(=O)N1CCOc2nc(-c3ccc(C4(N)CCC4)cc3)c(-c3ccccc3)cc21 [Example 41, 1-(6-(4-(1-aminocyclobutyl)phenyl)-7-phenyl-2,3-dihydro-1H-pyrido[2,3-b][1,4]oxazin-1-yl)ethanone]",1000 to 10000 nM,> 10000 nM,100 to 1000 nM
"CN1C(=O)COc2nc(-c3ccc([C@]4(N)C[C@H](O)C4)cc3)c(-c3ccccc3)cc21 [Example 137, 6-(4-((1r,3r)-1-amino-3-hydroxycyclobutyl)phenyl)-1-methyl-7-phenyl-1H-pyrido[2,3-b][1,4]oxazin-2(3H)-one]",≤ 100 nM,1000 to 10000 nM,100 to 1000 nM
"CN1C(=O)COc2nc(-c3ccc(C4(N)CCC4)cc3)c(-c3cccnc3)cc21 [Example 124, 6-(4-(1-aminocyclobutyl)phenyl)-1-methyl-7-(pyridin-3-0)-1H-pyrido[2,3-b][1,4]oxazin-2(3H)-one]",1000 to 10000 nM,1000 to 10000 nM,1000 to 10000 nM
"NC1(c2ccc(-c3nc4c(cc3-c3ccccc3)-n3c(Br)nnc3CO4)cc2)CCC1 [Example 92, 1-(4-(1-bromo-8-phenyl-4H-pyrido[2,3-b][1,2,4]triazolo[4,3-d][1,4]oxazin-7-yl)phenyl)cyclobutanamine]",100 to 1000 nM,1000 to 10000 nM,1000 to 10000 nM
"CCc1nnc2n1-c1cc(-c3ccccc3)c(-c3ccc([C@]4(N)C[C@@H](O)C4)cc3)nc1OC2 [Example 136, (1s,3s)-3-Amino-3-(4-(1-ethyl-8-phenyl-4H-pyrido[2,3-b][1,2,4]triazolo[4,3-d][1,4]oxazin-7-yl)phenyl)cyclobutanol]",100 to 1000 nM,1000 to 10000 nM,1000 to 10000 nM
"NC1(c2ccc(-c3nc4c(cc3-c3ccccc3)-c3n[nH]c(O)c3CC4)cc2)CCC1 [Example 7, 7-(4-(1-aminocyclobutyl)phenyl)-8-phenyl-4,5-dihydro-2H-pyrazolo[3,4f]quinolin-3-ol]",≤ 100 nM,> 10000 nM,1000 to 10000 nM
"COCC1Oc2nc(-c3ccc(C4(N)CCC4)cc3)c(-c3ccccc3)cc2N(CC#N)C1=O (stereo not drawn) [Example 95, 2-(6-(4-(1-aminocyclobutyl)phenyl)-3-(methoxymethyl)-2-oxo-7-phenyl-2,3-dihydro-1H-pyrido[2,3-b][1,4]oxazin-1-yl)acetonitrile]",100 to 1000 nM,> 10000 nM,100 to 1000 nM
"CC1Oc2nc(-c3ccc(C4(N)CCC4)cc3)c(-c3ccccc3)cc2N(CC#N)C1=O (stereo not drawn) [Example 81, 2-(6-(4-(1-aminocyclobutyl)phenyl)-3-methyl-2-oxo-7-phenyl-2,3-dihydro-1H-pyrido[2,3-b][1,4]oxazin-1-yl)acetonitrile]",≤ 100 nM,1000 to 10000 nM,100 to 1000 nM
"NC(=O)CN1C(=O)COc2nc(-c3ccc(C4(N)CCC4)cc3)c(-c3ccccc3)cc21 [Example 35, 2-(6-(4-(1-aminocyclobutyl)phenyl)-2-oxo-7-phenyl-2,3-dihydro-1H-pyrido[2,3-b][1,4]oxazin-1-yl)acetamide]",1000 to 10000 nM,> 10000 nM,100 to 1000 nM
"CC1Oc2nc(-c3ccc(C4(N)CCC4)cc3)c(-c3ccccc3)cc2N(C)C1=O (stereo not drawn) [Example 84, 6-(4-(1-aminocyclobutyl)phenyl)-1,3-dimethyl-7-phenyl-1H-pyrido[2,3-b][1,4]oxazin-2(3H)-one]",100 to 1000 nM,1000 to 10000 nM,1000 to 10000 nM
"CN(C)CCN1C(=O)COc2nc(-c3ccc(C4(N)CCC4)cc3)c(-c3ccccc3)cc21 [Example 34, 6-(4-(1-aminocyclobutyl)phenyl)-1-(2-(dimethylamino)ethyl)-7-phenyl-1H-pyrido[2,3-b][1,4]oxazin-2(3H)-one]",1000 to 10000 nM,> 10000 nM,1000 to 10000 nM
"CN1C(=O)COc2nc(-c3ccc([C@]4(N)C[C@@](C)(O)C4)cc3)c(-c3ccccc3)cc21 [Example 134, 6-(4((1s,3s)-1-amino-3-hydroxy-3-methylcyclobutyl)phenyl)-1-methyl-7-phenyl-1H-pyrido[2,3-b][1,4]oxazin-2(3H)-one]",100 to 1000 nM,> 10000 nM,1000 to 10000 nM
"NC(=O)CN1CCOc2nc(-c3ccc(C4(N)CCC4)cc3)c(-c3ccccc3)cc21 [Example 44, 2-(6-(4-(1-aminocyclobutyl)phenyl)-7-phenyl-2,3-dihydro-1H-pyrido[2,3-b][1,4]oxazin-1-yl)acetamide]",1000 to 10000 nM,> 10000 nM,1000 to 10000 nM
"N#CCn1nc2n(c1=O)-c1cc(-c3ccccc3)c(-c3ccc(C4(N)CCC4)cc3)nc1OC2 [Example 101, 2-(7-(4-(1-aminocyclobutyl)phenyl)-1-oxo-8-phenyl-1H-pyrido[2,3-b][1,2,4]triazolo[4,3-d][1,4]oxazin-2(4H)-yl)acetonitrile]",100 to 1000 nM,1000 to 10000 nM,100 to 1000 nM
"N#CCN1CCc2nc(-c3ccc(C4(N)CCC4)cc3)c(-c3ccccc3)cc2C1=O [Example 24, 2-(2-(4-(1-aminocyclobutyl)phenyl)-5-oxo-3-phenyl-7,8-dihydro-1,6-naphthyridin-6(5H)-yl)acetonitrile]",1000 to 10000 nM,> 10000 nM,100 to 1000 nM
"CCN1C(=O)COc2nc(-c3ccc(C4(N)CCC4)cc3)c(-c3ccccc3)cc21 [Example 52, 6-(4-(1-aminocyclobutyl)phenyl)-1-ethyl-7-phenyl-1H-pyrido[2,3-b][1,4]oxazin-2(3H)-one]",100 to 1000 nM,1000 to 10000 nM,≤ 100 nM
"C[C@]1(O)C[C@@](N)(c2ccc(-c3nc4c(cc3-c3ccccc3)N(CC(F)(F)F)C(=O)CO4)cc2)C1 [Example 152, 6-(4-((1r,3r)-1-amino-3-hydroxy-3-methylcyclobutyl)phenyl)-7-phenyl-1-(2,2,2-trifluoroethyl)-1H-pyrido[2,3-b][1,4]oxazin-2(3H)-one]",100 to 1000 nM,1000 to 10000 nM,≤ 100 nM
